Tested on: Botrytis cinerea
Assay: Activity against gray mold caused by Botrytis cinerea on bell pepper plants, protective application
Type: in vivo
Settings: 200 ppm, protective spray, bell pepper "California Wonder", after about 3 days; untreated plants 100% infected
Procedure: Comparative Experiment 1—Activity Against Gray Mold Caused by Botrytis cinerea, Protective Application Potted bell pepper plants of the cultivar “California Wonder” were sprayed to runoff point with an aqueous suspension having the active compound concentration stated below. The suspension or emulsion had been prepared by dilution with water from a stock solution comprising 5% of active compound, 94% of cyclohexanone and 1% of emulsifier (Tween 20). 2-5 hours after the spray coating had dried on, the plants were dusted with spores of gray mold (Botrytis cinerea). The test plants were then incubated in a humid chamber at temperatures between 20 and 22° C. and at 100% relative atmospheric humidity. After about 3 days, the extent of the pathogen development was determined visually in % infection of the entire leaf area.

CC(C)Nc1c(-c2ccccc2F)c(Cl)nc2ncnn12 [compound A]
infection of the entire leaf area: 90%

From patent publication US20080032889A1, “6-(2-Fluorophenyl)-Triazolopyrimidines, Method For The Production Thereof, Use Thereof For Controlling Harmful Fungi, And Agents Containing The Same” (BASF AKTIENGESELLSCHAFT, priority 2004, published 2008)
